Measurements from patent publication US10441593B2, “Treatment of pain associated with dislocation of endometrium” (PREGLEM S.A., priority 2010, dated 2019).
Several values for one entry are separate records, joined by “and”; a condition that tells them apart may be missing. Equal values may be shown once.

Test system: patients with heavy menstrual bleeding and pain who had adenomyosis
Experiment: Clinical study: 13 weeks oral 5 mg or 10 mg ulipristal in patients with adenomyosis (Example 1)
Assay type: in vivo, human
Experimental: A double-blinded, randomized, placebo-controlled study evaluating the effect of long term (13 weeks) oral administration of 5 mg or 10 mg ulipristal in patients with heavy menstrual bleeding and pain included 5 patients who had adenomyosis.
These patients included women 36 years of age or older diagnosed by MRI with adenomyosis but no evidence of uterine fibroid.
The patients were randomized as follows: 1 patient received a daily placebo treatment (matching Esmya tablet appearance) and iron 80 mg/day, 2 patients received a daily dose of 5 mg ulipristal (Esmya®) and iron 80 mg/day and 2 patients received a daily dose of 10 mg ulipristal (Esmya®) and iron 80 mg/day for 13 weeks.
Different parameters were assessed before treatment (Baseline) and after the end of treatment (13 weeks): • The PBAC score (Pictorial Blood Loss Assessment Chart) gives an estimation of the menstrual blood loss. This score was measured before treatment and continuing up to week 13 of treatment. Normal menstrual bleeding score is <75. Abnormal bleeding (menorrhagia) is characterized by a PBAC score >100. Higher the score, worse is the bleeding. • The Uterine volume was estimated before treatment (Baseline Uterine volume) and the % change in uterine volume was reported at the end of the treatment (week 13). • The SF-M P QPart A (short form of the Mc Gill Pain questionnaire) was used as a measure of the sensory, affective and intensity dimensions of pain. The pain was estimated before treatment and the change was reported at the end of the treatment (week 13). (NOTE: The lowest is the score, the better it is). • The SF-MPQ Part B (short form of the Mc Gill Pain questionnaire) wherein the pain is assessed with a visual analogue scale (VAS) before treatment and the change was reported at the end of the treatment (week 13). (NOTE: The lowest is the score, the better it is). • Discomfort questionnaire (disease specific quality of life questionnaire) estimating the quality of life before treatment and the change was reported at the end of the treatment (week 13). (NOTE: The lowest is the score, the better it is). • The level of Hb (Hemoglobin) was measured before treatment and at the end of the treatment. (NOTE: the higher it is, the better it is.) 3. Results

[1] = 5 mg/day + iron 80 mg/day, 13 weeks, patient 130/1368, adenomyosis
[2] = 5 mg/day + iron 80 mg/day, 13 weeks, patient 142/1036, adenomyosis
[3] = 10 mg/day + iron 80 mg/day, 13 weeks, patient 148/1427, adenomyosis
[4] = 10 mg/day + iron 80 mg/day, 13 weeks, patient 154/1240, adenomyosis
[5] = daily dose of 5 mg or 10 mg, examples 1 and 2

CC(=O)O[C@]1(C(C)=O)CC[C@H]2[C@@H]3CCC4=CC(=O)CCC4=C3[C@@H](c3ccc(N(C)C)cc3)C[C@@]21C [Ulipristal, 17α-acetoxy-11β-[4-N,N-dimethylamino-phenyl)-19-norpregna-4,9-diene-3,20-dione]
% change in uterine volume at week 13 [1]: −21.5% | Change in PBAC [1]: −232 | Discomfort questionnaire Change at Week 13 [1]: −5 | Hb at Week 13 [1]: 13.5 g/dL | PBAC at week 13 [1]: 0 | SF-MPQ Part A Change at Week 13 [1]: −5 | SF-MPQ Part B (VAS) Change at Week 13 [1]: −7 | % change in uterine volume at week 13 [2]: +0.4% | Change in PBAC [2]: −994 | Discomfort questionnaire Change at Week 13 [2]: −9 | Hb at Week 13 [2]: 14 g/dL | PBAC at week 13 [2]: 0 | SF-MPQ Part A Change at Week 13 [2]: 0 | SF-MPQ Part B (VAS) Change at Week 13 [2]: −6 | pain at 10 mg, both patients (10 mg, both patients, adenomyosis): Very substantial improvement in pain | pain at 10 mg, one of the patients (10 mg, one of the two patients, adenomyosis): complete absence of pain | % change in uterine volume at week 13 [3]: 36.4% | Change in PBAC [3]: −624 | Discomfort questionnaire Change at Week 13 [3]: −20 | Hb at Week 13 [3]: 13.6 g/dL | PBAC at week 13 [3]: 0 | SF-MPQ Part A Change at Week 13 [3]: −2 | SF-MPQ Part B (VAS) Change at Week 13 [3]: −43 | % change in uterine volume at week 13 [4]: −32.0% | Change in PBAC [4]: −536 | Discomfort questionnaire Change at Week 13 [4]: −12 | Hb at Week 13 [4]: 12.1 g/dL | PBAC at week 13 [4]: 0 | SF-MPQ Part A Change at Week 13 [4]: −14 | SF-MPQ Part B (VAS) Change at Week 13 [4]: −93 | PBAC score at the end of treatment (week 13) (all 4 patients treated with 5 mg or 10 mg, adenomyosis): 0 | pain as measured with the SF-MPQ Part B (VAS) compared to the placebo treated patient (all four patients, 5 mg or 10 mg, 13 weeks, adenomyosis): improvements in pain | quality of life compared to the placebo treated patient (all four patients, 5 mg or 10 mg, adenomyosis): substantial improvement in the quality of life | Hb at the end of the treatment (all four patients, 5 mg or 10 mg, concomitant iron 80 mg once daily): increase in Hb | PBAC score at the end of the treatment [5]: amenorrhea | uterine volume at the end of treatment [5]: decrease in uterine volume | levels of Hb during the treatment (daily dose of 5 mg or 10 mg, with or without concomitant iron): increased | % change in uterine volume at week 13 (individual ulipristal treated patients (5 mg or 10 mg), adenomyosis): +36.4% and +0.4% and −21.5% and −32% | pain relief, 10 mg compared to 5 mg (patients treated at 10 mg vs patients that received 5 mg, adenomyosis): better pain relief
